What was measured:
Erk1 = Erk1 (Homo sapiens (Human), UniProt P27361); assay: Protein Mass Modification Assay (intact protein MALDI); type: binding
Method in brief: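 Human Erk1 was incubated 60 min at room temperature with a 10-fold molar excess of compound, then analysed as intact protein by MALDI with sinapinic acid matrix. The centroid mass shift versus untreated protein was divided by compound molecular weight to give percent modified protein.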

MEK1 activated ERK1 = MEK1 activated ERK1 (Homo sapiens (Human), UniProt P27361); assay: Omnia continuous-read kinase assay for potency against MEK1 activated ERK1; type: biochemical; conditions: MEK1 activated ERK1, WT, ATP at KM
Method in brief: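 Apparent IC50 came from initial reaction slopes (RFU vs time) plotted against log inhibitor with a variable-slope fit. Reactions were started with ERK1 (4 nM final) added to 50 μM ATP, roughly at its appKM, and 10 μM Sox-conjugated ST17 peptide in 20 mM Tris pH 7.5, 5 mM MgCl2. Fluorescence was monitored every 71 seconds.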

Sequence of MEK1 activated ERK1 (P27361 whole entry): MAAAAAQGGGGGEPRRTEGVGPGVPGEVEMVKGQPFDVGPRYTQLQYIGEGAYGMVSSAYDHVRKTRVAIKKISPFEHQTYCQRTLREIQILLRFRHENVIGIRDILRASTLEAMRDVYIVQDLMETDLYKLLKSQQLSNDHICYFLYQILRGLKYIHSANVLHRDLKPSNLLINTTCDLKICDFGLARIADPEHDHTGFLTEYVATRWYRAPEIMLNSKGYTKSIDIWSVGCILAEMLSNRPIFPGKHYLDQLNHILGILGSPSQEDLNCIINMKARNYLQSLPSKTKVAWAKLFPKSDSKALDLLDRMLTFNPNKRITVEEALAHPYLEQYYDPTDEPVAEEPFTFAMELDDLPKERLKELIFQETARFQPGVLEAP
Sequence of Erk1 (P27361 whole entry, looked up): as the sequence (P27361 whole entry) above

Compound | ERK1 Mass Mod (%) (Erk1) | IC50 (MEK1 activated ERK1)
C=CC(=O)Nc1cc(OC)ccc1Nc1nc(Nc2ccc(N3CCNCC3)cc2C#N)ncc1Cl [Compound I-161, N-(2-((5-chloro-2-((2-cyano-4-(piperazin-1-yl)phenyl)amino)pyrimidin-4-yl)amino)-5-methoxyphenyl)acrylamide] | G (proived a mass modification ≦30%) | > 1000 nM
C=CC(=O)Nc1ccccc1Nc1nc(Nc2ccc(OCCOC)cc2OC)ncc1Cl [Compound I-182, N-(2-((5-chloro-2-((2-methoxy-4-(2-methoxyethoxy)phenyl)amino)pyrimidin-4-yl)amino)phenyl)acrylamide] | E (provided a mass modification of ≧70%) | > 1000 nM
C=CC(=O)N[C@H]1CCCC[C@@H]1Nc1nc(Nc2cc(C(N)=O)ccc2C)ncc1Cl [Compound I-201, 3-((4-(((1S,2S)-2-acrylamidocyclohexyl)amino)-5-chloropyrimidin-2-yl)amino)-4-methylbenzamide] | G (proived a mass modification ≦30%) | > 1000 nM
C=CC(=O)Nc1cc(C)ccc1Nc1nc(Nc2nc(O)ncc2Cl)ncc1C(F)(F)F [Compound I-363, N-(2-((2-((5-chloro-2-hydroxypyrimidin-4-yl)amino)-5-(trifluoromethyl)pyrimidin-4-yl)amino)-5-methylphenyl)acrylamide] | E (provided a mass modification of ≧70%) | > 1000 nM
C=CC(=O)Nc1cc(OC)ccc1Nc1nc(Nc2cc(OC)nc(N3CCN(C(C)=O)CC3)c2)ncc1Cl [Compound I-297, N-(2-((2-((2-(4-acetylpiperazin-1-yl)-6-methoxypyridin-4-yl)amino)-5-chloropyrimidin-4-yl)amino)-5-methoxyphenyl)acrylamide] | E (provided a mass modification of ≧70%) | < 100 nM
C=CC(=O)Nc1cc(F)ccc1Nc1nc(Nc2cc(C(N)=O)ccc2OC)ncc1Cl [Compound I-208, 3-((4-((2-acrylamido-4-fluorophenyl)amino)-5-chloropyrimidin-2-yl)amino)-4-methoxybenzamide] | E (provided a mass modification of ≧70%) | < 100 nM
C=CC(=O)Nc1ccccc1Nc1nc(Nc2ccc(N3CCC[C@H]3CO)cc2C#N)ncc1Cl [Compound I-172, (S)—N-(2-((5-chloro-2-((2-cyano-4-(2-(hydroxymethyl)pyrrolidin-1-yl)phenyl)amino)pyrimidin-4-yl)amino)phenyl)acrylamide] | F (provided a mass modification of 31-69%) | > 1000 nM
C=CC(=O)Nc1cc(Cl)ccc1Nc1nc(Nc2cc(Cl)nc(OC)c2)ncc1Cl [Compound I-247, N-(5-chloro-2-((5-chloro-2-((2-chloro-6-methoxypyridin-4-yl)amino)pyrimidin-4-yl)amino)phenyl)acrylamide] | F (provided a mass modification of 31-69%) | > 1000 nM
CC#CC(=O)N[C@@H]1CCCC[C@H]1Nc1nc(N[C@H]2CCCN(C(=O)CO)C2)ncc1C(F)(F)F [Compound I-33, N-((1R,2R)-2-((2-(((S)-1-(2-Hydroxyacetyl)piperidin-3-yl)amino)-5-(trifluoromethyl)pyrimidin-4-yl)amino)cyclohexyl)but-2-ynamide] | F (provided a mass modification of 31-69%) | > 1000 nM
C=CC(=O)NCc1ccccc1Nc1nc(Nc2cc(C(N)=O)ccc2C)ncc1Cl [Compound I-189, 3-((4-((2-(acrylamidomethyl)phenyl)amino)-5-chloropyrimidin-2-yl)amino)-4-methylbenzamide] | G (proived a mass modification ≦30%) | > 1000 nM
C=CC(=O)Nc1ccccc1Nc1nc(N[C@H]2CCCN(C(=O)C(C)C)C2)ncc1Cl [Compound I-137, (S)—N-(2-((5-chloro-2-((1-isobutyrylpiperidin-3-yl)amino)pyrimidin-4-yl)amino)phenyl)acrylamide] | E (provided a mass modification of ≧70%) | < 100 nM
C=CC(=O)Nc1cc(OC)ccc1Nc1nc(Nc2cc(OC)nc(N3CCN(C(C)=O)CC3)c2)ncc1C(F)(F)F [Compound I-91, N-(2-((2-((2-(4-Acetylpiperazin-1-yl)-6-methoxypyridin-4-yl)amino)-5-(trifluoromethyl)pyrimidin-4-yl)amino)-5-methoxyphenyl)acrylamide] | E (provided a mass modification of ≧70%) | < 100 nM
CN(C)CCC(=O)Nc1ccccc1Nc1nc(N[C@H]2CCCN(C(=O)CO)C2)ncc1C(F)(F)F [Compound I-276, (S)-3-(dimethylamino)-N-(2-((2-((1-(2-hydroxyacetyl)piperidin-3-yl)amino)-5-(trifluoromethyl)pyrimidin-4-yl)amino)phenyl)propanamide] | G (proived a mass modification ≦30%) | > 1000 nM
C=CC(=O)Nc1cc(OC)ccc1Nc1nc(Nc2ccc(N3CCC[C@H]3CO)cc2C(F)(F)F)ncc1Cl [Compound I-158, (S)—N-(2-((5-chloro-2-((4-(2-(hydroxymethyl)pyrrolidin-1-yl)-2-(trifluoromethyl)phenyl)amino)pyrimidin-4-yl)amino)-5-methoxyphenyl)acrylamide] | F (provided a mass modification of 31-69%) | > 1000 nM
C=CC(=O)Nc1ccccc1Nc1nc(N[C@@H]2CCN(C(=O)CO)C2)ncc1C(F)(F)F [Compound I-62, (R)—N-(2-((2-((1-(2-Hydroxyacetyl)pyrrolidin-3-yl)amino)-5-(trifluoromethyl)pyrimidin-4-yl)amino)phenyl)acrylamide] | F (provided a mass modification of 31-69%) | > 1000 nM
C=CC(=O)Nc1ccccc1Nc1nc(Nc2cc(OC)nc(OCCOC)c2)ncc1C(F)(F)F [Compound I-283, N-(2-((2-((2-Methoxy-6-(2-methoxyethoxy)pyridin-4-yl)amino)-5-(trifluoromethyl)pyrimidin-4-yl)amino)phenyl)acrylamide] | E (provided a mass modification of ≧70%) | < 100 nM
C=CC(=O)Nc1ccccc1Nc1nc(Nc2cc(C(=O)NOC)ccc2C)ncc1C(F)(F)F [Compound I-69, 3-((4-((2-Acrylamidophenyl)amino)-5-(trifluoromethyl)pyrimidin-2-yl)amino)-N-methoxy-4-methylbenzamide] | E (provided a mass modification of ≧70%) | < 100 nM
C=CC(=O)Nc1ccccc1Nc1nc(Nc2cc(OC)nc(OC)c2)ncc1C(F)(F)F [Compound I-95, N-(2-((2-((2,6-Dimethoxypyridin-4-yl)amino)-5-(trifluoromethyl)pyrimidin-4-yl)amino)phenyl)acrylamide] | E (provided a mass modification of ≧70%) | < 100 nM
C=CC(=O)Nc1cc(OC)ccc1Nc1nc(Nc2cc(OC)nc(N3CCN(CC)CC3)c2)ncc1C(F)(F)F [Compound I-88, N-(2-((2-((2-(4-Ethylpiperazin-1-yl)-6-methoxypyridin-4-yl)amino)-5-(trifluoromethyl)pyrimidin-4-yl)amino)-5-methoxyphenyl)acrylamide] | E (provided a mass modification of ≧70%) | < 100 nM
C=CC(=O)Nc1ccccc1Nc1nc(N[C@H]2CCCN(C(=O)C3CC3)C2)ncc1Cl [Compound I-136, (S)—N-(2-((5-chloro-2-((1-(cyclopropanecarbonyl)piperidin-3-yl)amino)pyrimidin-4-yl)amino)phenyl)acrylamide] | E (provided a mass modification of ≧70%) | < 100 nM
C=CC(=O)Nc1cc(C)ccc1Nc1nc(N[C@H]2CCCN(C(=O)CN)C2)ncc1C(F)(F)F [Compound I-42, (S)—N-(2-((2-((1-(2-Aminoacetyl)piperidin-3-yl)amino)-5-(trifluoromethyl)pyrimidin-4-yl)amino)-5-methylphenyl)acrylamide] | E (provided a mass modification of ≧70%) | < 100 nM
C=CC(=O)N[C@H]1CCCC[C@H]1Nc1nc(Nc2cc(C(N)=O)ccc2C)ncc1Cl [Compound I-200, 3-((4-(((1R,2S)-2-acrylamidocyclohexyl)amino)-5-chloropyrimidin-2-yl)amino)-4-methylbenzamide] | G (proived a mass modification ≦30%) | > 1000 nM
CCOCCC(=O)Nc1ccccc1Nc1nc(Nc2cc(C(N)=O)ccc2C)ncc1Cl [Compound I-130] | G (proived a mass modification ≦30%) | > 1000 nM
C=CC(=O)Nc1ccccc1Nc1nc(N[C@@H]2CCC[C@H](C(N)=O)C2)ncc1C(F)(F)F [Compound I-7, (1S,3R)-3-((4-((2-acrylamidophenyl)amino)-5-(trifluoromethyl)pyrimidin-2-yl)amino)cyclohexanecarboxamide] | E (provided a mass modification of ≧70%) | < 100 nM
C=CC(=O)Nc1cc(C)ccc1Nc1nc(N[C@H]2CCCN(C(=O)CO)C2)ncc1C(F)(F)F [Compound I-20, (S)—N-(2-((2-((1-(2-Hydroxyacetyl)piperidin-3-yl)amino)-5-(trifluoromethyl)pyrimidin-4-yl)amino)-5-methylphenyl)acrylamide] | E (provided a mass modification of ≧70%) | < 100 nM
C=CC(=O)Nc1cc(C)ccc1Nc1nc(Nc2cc(OC)cnc2Cl)ncc1C(F)(F)F [Compound I-361, N-(2-((2-((2-chloro-5-methoxypyridin-3-yl)amino)-5-(trifluoromethyl)pyrimidin-4-yl)amino)-5-methylphenyl)acrylamide] | E (provided a mass modification of ≧70%) | < 100 nM
C=CC(=O)Nc1ccccc1Nc1nc(Nc2cc(C(N)=O)ccc2C#N)ncc1Cl [Compound I-192, 3-((4-((2-acrylamidophenyl)amino)-5-chloropyrimidin-2-yl)amino)-4-cyanobenzamide] | E (provided a mass modification of ≧70%) | < 100 nM
